Like-named read-outs stand apart in the source and are kept apart here.
Assays:
[1] = tested on: subgenomic RNA-replicon HCV (genotype 1b); test: Antiviral activity in Huh7 cells with subgenomic HCV RNA-replicon, ELISA on viral cor-antigen (genotype 1b); assay type: cell-based
Procedure: (§1) Antiviral activity (EC50) of nucleoside inhibitors of HCV RNA-polymerase NS5B of the general formula 1, 2 and 3 (further—test compounds) was determined in the human hepatoma cell line Huh7, comprising subgenomic RNA-replicon HCV (genotype 1b, 1a and 2a). For quantitative estimation of viral replication was used a version of immune test ELISA on viral cor-antigen in 96-well plate. Cytotoxicity of the compounds was estimated in parallel regime. As a reference substance was used PSI-7977. Cells Huh7 were seeded in 96-well plate (7.5×10^3 cells to each well in 100 μl of culture medium). Solutions of the tested compounds in DMEM medium {DMEM 1×; Source: Cellgro; Catalogue: 10-013-CV} were prepared immediately before use. Eleven serial three fold dilutions with concentrations from 20 nM to […] were prepared. In 4 hours after seeding, serial dilutions of the compounds were added to the cells (100 μl to each well). Final concentration of tested compounds was varied from 10 nM to 0.1 pM, and DMSO—0.5%. If it was necessary, higher concentrations of the test compounds were investigated. Each dilution of the compound was tested on two identical wells. Then the cells were incubated for three days at 37° C./5% CO2 and fixed by addition of acetone/methanol (1:1) mixture in amount of 250 μl/well. In 1 min the cells were washed 3 times with PBS (Phosphate Buffered Saline) solution. Then the cells were blocked by addition of 10% fetal calf serum in PBS solution in amount of 150 μl/well for 1 h at room temperature. After that the cells were incubated with mouse monoclonal antibodies to cor-antigen HCV, clon C7-50 (Source: Affinity BioReagents; Catalogue: MA1-080) (100 μl/well, working dilution—1:500 in 10% fetal calf serum in PBS solution) for 2 h at 37° C. The cells were washed 6 times with PBS/0.05% Tween 20 solution, then, they were incubated for 1 h with goat anti-mouse immunoglobulin antibodies (conjugated with horseradish peroxidase, 100 μl/well, working dilution—1:2500 in 10% fetal calf serum in PBS solution). The cells were washed 6 times with PBS/0.05% Tween 20 solution, once with PBS solution, after that substrate (1 tablet of o-phenylenediamine (oPD)+12 ml citrate/phosphate buffer+5 μl 30% H2O2) in amount of 100 μl/well was added. The plates were kept for 30 min in the dark at room temperature. The reaction was arrested by the adding 2N H2SO4 in amount of 100 μl/well, and optical density (at wavelength 490 nm) was measured by means of multiscan plate reader Victor3 V 1420 (Perkin Elmer). IC50 values (concentration of test compound, lowering the level of virus RNA-replicon by 50%) for every tested compound were calculated using XLfit 4 program.

[2] = tested on: subgenomic RNA-replicon HCV (genotype 1a); test: Antiviral activity in Huh7 cells with subgenomic HCV RNA-replicon, ELISA on viral cor-antigen (genotype 1a); assay type: cell-based
Procedure: as §1

[3] = tested on: subgenomic RNA-replicon HCV (genotype 2a); test: Antiviral activity in Huh7 cells with subgenomic HCV RNA-replicon, ELISA on viral cor-antigen (genotype 2a); assay type: cell-based
Procedure: as §1

[4] = tested on: human hepatoma cell line Huh7; test: Cytotoxicity determination, ATPLite kit; assay type: cell-based; conditions: Huh7 cells, genotype 1b, 10% FBS
Procedure: (§2) Cytotoxicity of the test compounds (CC50) was investigated in experiments on the human hepatoma cell line Huh7. Metabolic activity of cells was determined using ATPLite kit (Perkin Elmer, Boston, USA) in accordance with manufacturer instructions. Cytotoxic action was estimated by seeding the cells into black microplate with transparent bottom (96 wells, 10^4 cells to each well). Three independent repeats were used for each test compound. The tested compounds were added in 18 h, after that the cells were incubated together with the compounds for 96 h. Each well was washed two times with phosphate buffered saline (0.2 ml/well) and then the cells were lysed by adding cell buffer (50 μl/well) (all mentioned reagents are included in ATPLite kit). The microplate was incubated for 5 min on a rotating platform at 600 r/min, after that 50 μl of substrate solution (a part of ATPLite kit) was added into each well. The microplate was incubated for additional 5 min on a rotating platform at 600 r/min, kept for 10 min in the dark; after that luminescence was measured using TopCount NXT instrument (Packard, Perkin Elmer). CC50 Value corresponding to concentration of tested compound at which 50% of cells were ruined was used as quantitative characteristic for cytotoxicity estimation. Calculation of CC50 value: for calculation of inhibition effectiveness (% Inh) the following equation was used: % Inh=[(L^pos−L^ex)/L^pos−L^neg)]*100%, where L^pos—positive control, luminescence in the wells with cells without compounds; L^neg—negative control, luminescence in the wells with medium without cells; L^ex—luminescence in wells with a compound of definite concentration. Then, CC50 values were calculated using XLfit 4 program.

[5] = tested on: viral hepatitis C; conditions: together with Daclatasvir; previously untreated patients; without interferon and Ribavirin; intermediate data; cited from earlier work
[6] = Cytotoxicity determination, ATPLite kit; assay type: cell-based, human; conditions: human; Huh7 cells, genotype 1b, 10% FBS
Procedure: as §2

[7] = Huh7 replicon, genotype 1b, 10% FBS, read-out: EC50, HCV genotype 1b
[8] = Huh7 replicon, genotype 1a, 10% FBS, read-out: EC50, HCV genotype 1a
[9] = Huh7 replicon, genotype 2a, 10% FBS, read-out: EC50, HCV genotype 2a
[10] = Hepatitis C virus, Huh-7, read-out: EC50, HCV genotype 1b
[11] = Hepatitis C virus, Huh-7, Huh7 replicon, genotype 1a, 10% FBS, read-out: EC50, HCV genotype 1a
[12] = Hepatitis C virus, Huh-7, Huh7 replicon, genotype 2a, 10% FBS, read-out: EC50, HCV genotype 2a

Compound	EC50 [1, 7]	EC50 [2, 8]	EC50 [3, 9]	CC50 [4]	positive result in patients [5]	EC50 [1, 10]	EC50 [2, 11]	EC50 [3, 12]	CC50 at 96 h [6]	EC50 ([2]; Hepatitis C virus, Huh-7, read-out: EC50, HCV genotype 1a)	EC50 ([3]; Hepatitis C virus, Huh-7, read-out: EC50, HCV genotype 2a)
CC(C)OC(=O)[C@H](C)N[P@](=O)(OC[C@H]1O[C@@H](n2ccc(=O)[nH]c2=O)[C@](C)(F)[C@@H]1O)Oc1ccccc1 [PSI-7977, iso-propyl (S)-2-{(S)-[(2R,3R,4R,5R)-5-(2,4-dioxo-3,4-dihydro-2H-pyrimidin-1-yl)-4-fluoro-3-hydroxy-4-methyl-tetrahydro-furan-2-ylmethoxy]-phenoxy-phosphorylamino}-propanoate, reference compound]	91.8 nM	292 nM	88.4 nM	> 10 µM	100%						
CC(C)OC(=O)[C@H](C)NP(=O)(OC[C@H]1OC(n2ccc(NC(=O)[C@@H]3CCCN3C)nc2=O)C(F)(F)[C@@H]1O)Oc1ccc(Cl)cc1 (some centres unmarked) [1.1.2(6)]						14.4 nM	124 nM	79.3 nM	> 10 µM		
CC(C)OC(=O)[C@H](C)NP(=O)(OC[C@H]1O[C@@H](n2ccc(NC(=O)CN(C)C)nc2=O)C(F)(F)[C@@H]1O)Oc1ccccc1 (stereo partly drawn) [1.1.2(1), iso-propyl (S)-2-({(2R,3R,5R)-5-[4-(2-dimethylamino-acetylamino)-2-oxo-2H-pyrimidin-1-yl]-4,4-difluoro-3-hydroxy-tetrahydro-furan-2-ylmethoxy]-phenoxy-phosphorylamino}-propionate]						35 nM	106 nM	116 nM	> 10 µM		
CC(=O)O[C@@H]1[C@@H](COP(=O)(N[C@@H](C)C(=O)OC(C)C)Oc2ccccc2)OC(n2ccc(N)nc2=O)C1(F)F (stereo partly drawn) [compound 3, (S)-iso-propyl 2-((((2R,3R)-3-acetoxy-5-(4-amino-2-oxopyrimidin-1(2H)-yl)-4,4-difluoro-tetrahydrofuran-2-yl)methoxy)(phenoxy)phosphorylamino)propanoate]						15.7 nM	141 nM	61 nM	> 10 µM		
CC(C)OC(=O)C(C)NP(=O)(OCC1OC(n2ccc(NC(=O)C(NC(=O)OC(C)(C)C)C(C)C)nc2=O)C(F)(F)C1O)Oc1ccccc1 (centres unmarked) [1.1.2(3)]						60.9 nM			> 10 µM	182 nM	69.4 nM
CC(C)OC(=O)[C@H](C)NP(=O)(OC[C@H]1O[C@@H](n2ccc(NC(=O)[C@H](NC(=O)OC(C)(C)C)C(C)C)nc2=O)C(F)(F)[C@@H]1O)Oc1ccccc1 (some centres unmarked) [1.1.2(2)]						60.6 nM	95.6 nM	78.9 nM	> 10 µM		
CC(C)OC(=O)[C@H](C)NP(=O)(OC[C@H]1OC(n2ccc(N)nc2=O)C(F)(F)[C@@H]1O)Oc1ccccc1 (stereo partly drawn) [compound 2, (S)-iso-propyl 2-((((2R,3R)-5-(4-aminooxopyrimidin-1(2H)-yl)-3-hydroxy-2-4,4-difluoro-tetrahydrofuran-2-yl)methoxy)(phenoxy)phosphorylamino)propanoate]	13.9 nM	114 nM	57.2 nM	> 10 µM							
